Assay results from BindingDB's records for doi:10.7270/Q24Q7SF3 (Burnham Center For Chemical Genomics, 2010).

What follows are compounds tested against T1, Alkaline phosphatase, tissue-nonspecific isozyme (Homo sapiens, UniProt P05186) (assay: TNAP enzyme activators, dose response, selectivity assay for human IAP activator project, biochemical, TNAP isozyme, human IAP uHTS hits (AID 488886)).
T1 sequence (P05186 whole entry): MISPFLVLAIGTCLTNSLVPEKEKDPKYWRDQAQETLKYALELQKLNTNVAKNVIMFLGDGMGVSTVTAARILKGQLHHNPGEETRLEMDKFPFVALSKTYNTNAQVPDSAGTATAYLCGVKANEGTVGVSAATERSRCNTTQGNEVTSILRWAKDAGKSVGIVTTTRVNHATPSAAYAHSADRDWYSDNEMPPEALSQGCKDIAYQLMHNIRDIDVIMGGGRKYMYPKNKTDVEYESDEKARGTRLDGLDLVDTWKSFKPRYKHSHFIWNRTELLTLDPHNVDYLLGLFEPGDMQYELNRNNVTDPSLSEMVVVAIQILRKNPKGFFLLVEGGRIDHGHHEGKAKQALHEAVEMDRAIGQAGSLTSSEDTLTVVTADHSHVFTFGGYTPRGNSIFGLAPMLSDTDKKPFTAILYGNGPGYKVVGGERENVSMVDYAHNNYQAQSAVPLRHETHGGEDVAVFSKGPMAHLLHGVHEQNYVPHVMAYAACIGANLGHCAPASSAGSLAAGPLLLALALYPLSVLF

Point of comparison: `CCc1ccc(CN=Nc2ncnc3nc[nH]c23)cc1` [MLS000419199], EC50 17.7 µM. Against it:
- Cc1cc(Br)ccc1SCC(=O)OCC(=O)C(C#N)c1nc2ccccc2[nH]1 (stereo not drawn) [2-[(4-bromo-2-methylphenyl)thio]acetic acid [3-cyano-3-(1,3-dihydrobenzimidazol-2-ylidene)-2-oxopropyl] ester] — within 1.5-fold, 24.1 µM
- C=c1[nH]n(-c2nc3ccccc3[nH]2)c(=O)c1=CN(C)C [(4E)-2-(1H-benzimidazol-2-yl)-4-(dimethylaminomethylidene)-5-methyl-pyrazol-3-one] — 1.6-fold lower, 11.4 µM
- Cn1c(C(C#N)C(=O)c2ccc(Br)s2)nc2ccccc21 (stereo not drawn) [MLS001167394] — 2.5-fold higher, 45 µM
- COc1cccc(C=NNC(=O)c2[nH][nH]c(=O)c2C)c1O [N'-[(E)-(5-methoxy-6-oxidanylidene-cyclohexa-2,4-dien-1-ylidene)methyl]-4-methyl-5-oxidanylidene-1,4-dihydropyrazole-3-carbohydrazide] — 2-fold lower, 8.88 µM
- O=c1c2ccccc2nc(N=NCc2c(O)ccc3ccccc23)n1O [SMR000145705] — higher, > 100 µM
- O=Nc1[nH]c(=O)c(CC(=O)c2ccccc2)nc1NO [SMR000539633] — higher, > 100 µM
- CCOC(=O)c1c(C)[nH]c(C(=O)N/N=C/C2C=C([N+](=O)[O-])C=CC2=O)c1C (stereo not drawn) [ethyl 2,4-dimethyl-5-[[[(E)-(3-nitro-6-oxocyclohexa-2,4-dien-1-ylidene)methyl]amino]carbamoyl]-1H-pyrrole-3-carboxylate] — within 1.5-fold, 22.3 µM
